{"source": "patent US20150050244A1", "about": "“Entomopathogenic Fungi and Uses Thereof” (priority 2008, published 2015)", "system": "green pea aphid (Myzus persicae)", "test": "Aphid mortality on leaf discs, Potters tower, K4B3 extract versus beauvericin", "type": "in vivo", "description": "Table 7 below presents mortality observed amongst green pea aphid (Myzus persicae) present on Asian brassica leaf discs. Asian brassica leaf discs were placed on 1% water agar in Petri dishes. […] The sprayed Petri dishes were placed dorsal side down on paper towels to allow surfaces to dry. Five replicates of each treatment were done. Mortality was assessed 48 hours after application.", "key": {"[1]": {"conditions": "per replicate, 2 mL sprayed, 48 hours, beauvericin solution 50 μg/mL with 2.5 mL millennium oil/L"}, "[2]": {"conditions": "total of replicates, 2 mL sprayed, 48 hours"}}, "note": "Several values for one entry are separate records, joined by “and”; a condition that tells them apart may be missing. Identical values can stand only once."}
{"substance": "beauvericin", "values": [{"measurement": "mortality compared with the water control", "setting": "beauvericin alone, Table 7", "result": "not significantly different"}, {"measurement": "aphid mortality (in words)", "setting": "beauvericin even at 50,000 μg/L", "result": "very low"}, {"measurement": "Alive Adult", "setting": "[1]", "result": "0 (3×) and 8 and 10"}, {"measurement": "Alive Juv.", "setting": "[1]", "result": "0 (3×) and 22 and 28"}, {"measurement": "Dead Adult", "setting": "[1]", "result": "0 (4×) and 1"}, {"measurement": "Dead Juv.", "setting": "[1]", "result": "0 (3×) and 1 and 3"}, {"measurement": "Total Alive Adult", "setting": "[2]", "result": 18}, {"measurement": "Total Alive Juv.", "setting": "[2]", "result": 50}, {"measurement": "Total Dead Adult", "setting": "[2]", "result": 1}, {"measurement": "Total Dead Juv.", "setting": "[2]", "result": 4}]}
